Measured values taken from patent US6750247B2, “Sponge-derived terpenoids and methods of use” (Galileo Laboratories, Inc., priority 2001, dated 2004).

Tested on: neonatal cardiomyocytes
Test: Myocyte calcium-contractility assay (cardiomyocyte beating anoxia assay)
Assay type: cell-based, rat
Settings: 16 hr anoxia, 2 hr reoxygenation; for Percent Activity: at dose for max. activity, Fluo-4 fluorescence
Experimental: 10× Heart Dissection Solution (HDS) contains the following components (g/l) in tissue culture grade water: NaCl, 68; HEPES, 47.6; NaH2PO4, 2; Glucose, 10; KCl, 4; MgSO4, 1, pH adjusted to 7.4. Prior to filter sterilization of diluted (1× HDS) solution, 10 mg phenol red was added to each 500 milliliters of medium. Transferrin and Bovine Insulin were obtained from Life Technologies, and resuspended at a concentration of 4 mg/ml in tissue culture grade water. DMEM-F12- DMEM/F12, powder, 1:1 containing glutamine and pyridoxine hydrochloride was purchased from Life Technologies. To one liter equivalent of the powder was added 2.43 g of sodium bicarbonate and 10 ml of 100× Penicillin/Streptomycin in 950 ml of tissue culture grade water with stirring. The pH was adjusted to 7.2 with 1M HCl and volume was adjusted to 1 liter. The solution was filter sterilized then 2.5 ml of 4 mg/ml Transferrin, 250 μl 4 mg/ml Insulin and 30.7 mg of bromodeoxyuridine were added. DMEM-F12 was also prepared with 4% FBS for pre-coating the tissue culture plates and initial suspension of the cardiomyocyte pellet. Collagenase solution-49 mg of collagenase was resuspended in 120 ml 1× HDS.
Tissue culture plasticware was pre-coated with DMEM-F12-4% FBS by incubating 50 μl per well of a 96-well plate. Two-day old rat pups were removed from their mothers and placed in a sterile container. Pups were dipped quickly into 70% alcohol, then decapitated and the body was placed in an empty sterile tissue culture dish. An incision was made starting at the neck and progressing towards the belly, cutting through the sternum. The heart was removed and placed in a tissue culture dishes containing 1× HDS. The atria were trimmed, and the remaining ventricles were placed into a separate tissue culture dish containing 1× HDS, where they were sectioned into 3-4 pieces each. Ventricles were then transferred to a sterile 250 ml glass flask and the 1× HDS was removed. Twenty milliliters of pre-warmed collagenase solution were added to the ventricles, followed by incubation at 37° C. with shaking. After 30 minutes, the collagenase solution was removed and replaced with 20 ml fresh pre-warmed collagenase. Incubation was continued for an additional 20 minutes. At the end of the incubation, any tissue chunks were allowed to settle prior to removing the collagenase (containing the isolated cardiomyocytes) from the disrupted tissue pieces. The isolated myocytes were added to a 50 ml Falcon tube containing 2 ml Fetal Bovine Serum (FBS). The remaining tissue pieces were subjected to a second digestion by adding 20 ml fresh pre-warmed collagenase and incubating as above for 20 minutes. This second digest was then centrifuged at 1000 rpm for 10 minutes in a GH 3.8 A rotor in an Allegra 6 Centrifuge (Beckman Instruments, Fullerton, Calif.). The resulting supernatant was discarded, and the cell pellet was suspended with 4 ml FBS. The resulting cell suspension was placed in the incubator at 37° C. This step was repeated several additional times to harvest additional material.
Percoll gradients were prepared by adding 2.5 ml of 10× HDS to 22.5 ml of Percoll (Life Technologies) with mixing (Percoll Stock). Top Gradient solution (11 ml Percoll Stock and 14 ml 1× HDS) and Bottom Gradient solution (13 ml Percoll Stock and 7 ml 1× HDS) were prepared. Four milliliters of the Top Gradient solution were transferred into 6×15 ml sterile Falcon tubes. Three milliliters of the Bottom Gradient solution were placed in each tube by inserting a serological pipette to the bottom of the tube and slowly adding the liquid.
All the digests (5 in total) were pooled in one 50 ml Falcon tube and centrifuged on a tabletop Allegra 6 Centrifuge (Beckman Instruments, Fullerton, Calif.) using a GH 3.8 A rotor at 1000 rpm for 10 minutes. The supernatant was discarded, and the cell pellet was resuspended in 12 ml of 1× HDS. Two milliliters of the cell suspension was added to the top of each gradient. […]

Compound: CC1=CCC[C@H](C)[C@]1(C)CC/C(C)=C/CCc1ccoc1 [(+)-subersin (2), 3-[4-methyl-6-(1,2,6-trimethyl-cyclohex-2-enyl)-hex-3-enyl]-furan]
- Dose for Max. Activity: 8 µg/mL
- cell viability: increased cell viability
- Percent Activity: 78%

Compound: CC1=C(CC/C(C)=C/Cc2cc(C(=O)O)ccc2O)[C@]2(C)CCCC(C)(C)[C@H]2CC1 [(−)-subersic acid (1), 4-hydroxy-3-[3-methyl-5-(2,5,5,8a-tetramethyl-3,4,4a,5,6,7,8,8a-octahydro-naphthalen-1-yl)-pent-2-enyl]-benzoic acid]
- Dose for Max. Activity: 25 µg/mL
- cell viability: increased cell viability
- Percent Activity: 61%

Compound: CC1=C(CC/C(C)=C/CC/C(C)=C/Cc2cc(O)ccc2O)C(C)(C)CCC1 [jaspaquinol (3), 2-[3,7-dimethyl-9-(2,6,6-trimethyl-cyclohex-1-enyl)-nona-2,6-dienyl]-benzene-1,4-diol]
- Percent Activity: No activity at 75 μg/mL
